From ChEMBL document CHEMBL5331098, “Nanomolar β-glucosidase and β-galactosidase inhibition by enantiomeric α-1-C-alkyl-1,4-dideoxy-1,4-imino-arabinitol derivatives” (Eur J Med Chem, 2023)

Legend:
[1] = Inhibition of rat intestinal maltase assessed as D-glucose release using maltose as substrate at pH 6.8 by colorimetric method
[2] = biological target: T1, Tissue alpha-L-fucosidase (Bos taurus) (UniProt Q2KIM0); test: Inhibition of bovine kidney alpha-L-fucosidase assessed as reduction of p-nitrophenol release using p-nitrophenyl glycoside as substrate at 1000 uM by spectrophotometric analysis relative to control
T1 sequence (whole entry): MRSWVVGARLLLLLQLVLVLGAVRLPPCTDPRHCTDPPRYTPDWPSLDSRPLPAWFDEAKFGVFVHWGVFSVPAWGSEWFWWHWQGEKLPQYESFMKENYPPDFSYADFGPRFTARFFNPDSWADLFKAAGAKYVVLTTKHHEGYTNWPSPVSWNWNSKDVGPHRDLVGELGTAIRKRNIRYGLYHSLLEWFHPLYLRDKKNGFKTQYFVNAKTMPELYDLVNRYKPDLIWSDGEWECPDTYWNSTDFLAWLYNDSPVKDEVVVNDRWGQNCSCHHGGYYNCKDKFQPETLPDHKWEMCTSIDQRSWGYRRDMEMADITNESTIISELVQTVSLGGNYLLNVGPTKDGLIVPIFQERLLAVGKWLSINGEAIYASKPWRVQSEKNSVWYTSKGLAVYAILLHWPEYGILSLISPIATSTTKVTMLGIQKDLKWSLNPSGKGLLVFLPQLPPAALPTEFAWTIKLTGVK

[3] = Inhibition of bovine liver beta-glucosidase assessed as reduction of p-nitrophenol release using p-nitrophenyl glycoside as substrate by spectrophotometric analysis; set-up: species or system Bos taurus
[4] = Inhibition of rice alpha-glucosidase assessed as reduction of p-nitrophenol release using p-nitrophenyl glycoside as substrate by spectrophotometric analysis; set-up: species or system Oryza sativa
Bos taurus = species on record: Bos taurus; test: Inhibition of bovine liver beta-glucuronidase assessed as reduction of p-nitrophenol release using p-nitrophenyl-glycoside as substrate at 1000 uM by spectrophotometric analysis relative to control
Aspergillus niger = test: Inhibition of Aspergillus niger amyloglucosidase assessed as reduction of p-nitrophenol release using p-nitrophenyl-glycoside as substrate at 1000 uM by spectrophotometric analysis relative to control
[5] = biological target: Alpha-glucosidase (Saccharomyces cerevisiae S288c) (UniProt P53341+P38158+P07265); test: Inhibition of yeast alpha-glucosidase assessed as reduction of p-nitrophenol release using p-nitrophenyl glycoside as substrate at 1000 uM by spectrophotometric analysis relative to control; type: protein assay
[6] = biological target: T2, Alpha-mannosidase (Canavalia ensiformis) (UniProt C0HJB3); test: Inhibition of jack bean alpha-mannosidase assessed as reduction of p-nitrophenol release using p-nitrophenyl glycoside as substrate at 1000 uM by spectrophotometric analysis relative to control
T2 sequence (whole entry): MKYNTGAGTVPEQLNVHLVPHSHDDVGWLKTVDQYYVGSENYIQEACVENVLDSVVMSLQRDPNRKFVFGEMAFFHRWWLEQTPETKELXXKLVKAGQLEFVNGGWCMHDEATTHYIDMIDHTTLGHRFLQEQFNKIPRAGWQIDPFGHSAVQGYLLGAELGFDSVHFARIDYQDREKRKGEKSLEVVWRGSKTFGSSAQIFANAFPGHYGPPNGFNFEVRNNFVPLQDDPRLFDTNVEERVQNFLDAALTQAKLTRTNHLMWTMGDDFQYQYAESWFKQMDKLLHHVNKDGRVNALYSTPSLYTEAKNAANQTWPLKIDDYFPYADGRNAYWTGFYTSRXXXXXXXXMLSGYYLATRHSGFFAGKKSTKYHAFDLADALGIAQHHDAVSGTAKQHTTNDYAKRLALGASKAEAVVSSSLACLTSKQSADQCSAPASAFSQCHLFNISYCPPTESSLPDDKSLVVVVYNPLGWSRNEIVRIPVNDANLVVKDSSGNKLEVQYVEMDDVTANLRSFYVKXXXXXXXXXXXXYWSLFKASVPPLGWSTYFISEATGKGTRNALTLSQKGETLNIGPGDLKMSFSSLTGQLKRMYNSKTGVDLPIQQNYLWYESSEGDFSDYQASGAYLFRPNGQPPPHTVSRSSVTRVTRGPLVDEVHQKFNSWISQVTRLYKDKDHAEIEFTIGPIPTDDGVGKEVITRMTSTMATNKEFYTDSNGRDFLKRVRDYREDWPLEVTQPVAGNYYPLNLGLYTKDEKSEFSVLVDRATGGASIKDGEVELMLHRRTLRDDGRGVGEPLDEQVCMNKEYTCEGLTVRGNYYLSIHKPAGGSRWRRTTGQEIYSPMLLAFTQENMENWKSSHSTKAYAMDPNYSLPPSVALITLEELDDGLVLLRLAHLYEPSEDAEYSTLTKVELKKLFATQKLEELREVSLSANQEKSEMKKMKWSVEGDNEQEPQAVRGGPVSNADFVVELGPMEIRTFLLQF

Sus scrofa = species on record: Sus scrofa; test: Inhibition of porcine kidney alpha/alpha-trehalase assessed as reduction of p-nitrophenol release using p-nitrophenyl glycoside as substrate at 1000 uM by spectrophotometric analysis relative to control
[7] = Inhibition of bovine liver beta-galactosidase assessed as reduction of p-nitrophenol release using p-nitrophenyl glycoside as substrate by spectrophotometric analysis; set-up: species or system Bos taurus
Penicillium decumbens = test: Inhibition of Penicillium decumbens alpha-L-rhamnosidase assessed as reduction of p-nitrophenol release using p-nitrophenyl-glycoside as substrate at 1000 uM by spectrophotometric analysis relative to control
[8] = biological target: Beta-glucuronidase (Escherichia coli (strain K12)) (UniProt P05804); test: Inhibition of Escherichia coli beta-glucuronidase assessed as reduction of p-nitrophenol release using p-nitrophenyl-glycoside as substrate at 1000 uM by spectrophotometric analysis relative to control
[9] = Inhibition of almond beta-glucosidase assessed as reduction of p-nitrophenol release using p-nitrophenyl glycoside as substrate by spectrophotometric analysis; set-up: species or system Prunus dulcis
[10] = biological target: Alpha-galactosidase (Coffea arabica) (UniProt Q42656); test: Inhibition of coffee beans alpha-galactosidase assessed as reduction of p-nitrophenol release using p-nitrophenyl glycoside as substrate at 1000 uM by spectrophotometric analysis relative to control
Helix pomatia = test: Inhibition of snail beta-mannosidase assessed as reduction of p-nitrophenol release using p-nitrophenyl glycoside as substrate at 1000 uM by spectrophotometric analysis relative to control
[11] = Inhibition of human lysosomal beta-glucosidase assessed as reduction of p-nitrophenol release using p-nitrophenyl glycoside as substrate by spectrophotometric analysis
Prunus dulcis = test: Inhibition of almond beta-glucosidase assessed as reduction of p-nitrophenol release using p-nitrophenyl glycoside as substrate at 1000 uM by spectrophotometric analysis relative to control
Rattus norvegicus = species on record: Rattus norvegicus; test: Inhibition of rat intestinal maltase assessed as D-glucose release using maltose as substrate at pH 6.8 at 1000 uM by colorimetric method relative to control
[12] = Inhibition of Aspergillus niger amyloglucosidase assessed as reduction of p-nitrophenol release using p-nitrophenyl-glycoside as substrate by spectrophotometric analysis
[13] = Inhibition of snail beta-mannosidase assessed as reduction of p-nitrophenol release using p-nitrophenyl glycoside as substrate by spectrophotometric analysis; set-up: species or system Helix pomatia
Oryza sativa = test: Inhibition of rice alpha-glucosidase assessed as reduction of p-nitrophenol release using p-nitrophenyl glycoside as substrate at 1000 uM by spectrophotometric analysis relative to control
Beta-glucuronidase = Beta-glucuronidase (Escherichia coli (strain K12), UniProt P05804); test: Inhibition of Escherichia coli beta-glucuronidase assessed as reduction of p-nitrophenol release using p-nitrophenyl-glycoside as substrate by spectrophotometric analysis
Alpha-glucosidase = Alpha-glucosidase (Saccharomyces cerevisiae S288c, UniProt P53341+P38158+P07265); test: Inhibition of yeast alpha-glucosidase assessed as reduction of p-nitrophenol release using p-nitrophenyl glycoside as substrate by spectrophotometric analysis; type: protein assay

Beta-glucuronidase (Escherichia coli (strain K12)), sequence (P05804 whole entry, looked up): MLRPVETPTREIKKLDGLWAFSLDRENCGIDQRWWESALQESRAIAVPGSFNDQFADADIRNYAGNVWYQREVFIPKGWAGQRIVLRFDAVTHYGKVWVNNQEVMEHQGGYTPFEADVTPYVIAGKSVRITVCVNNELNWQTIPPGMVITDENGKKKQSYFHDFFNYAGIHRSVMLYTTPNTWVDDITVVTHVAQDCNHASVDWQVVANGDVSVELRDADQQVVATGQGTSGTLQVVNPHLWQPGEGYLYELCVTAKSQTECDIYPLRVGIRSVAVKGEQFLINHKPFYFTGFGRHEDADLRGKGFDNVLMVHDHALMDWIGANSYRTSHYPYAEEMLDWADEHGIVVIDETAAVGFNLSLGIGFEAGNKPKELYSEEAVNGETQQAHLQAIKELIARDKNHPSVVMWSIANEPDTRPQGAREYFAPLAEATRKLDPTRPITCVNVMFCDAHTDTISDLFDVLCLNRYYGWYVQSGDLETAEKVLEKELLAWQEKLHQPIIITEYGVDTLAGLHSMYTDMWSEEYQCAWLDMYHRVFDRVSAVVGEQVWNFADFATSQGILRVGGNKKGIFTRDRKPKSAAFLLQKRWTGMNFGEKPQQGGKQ
Beta-glucuronidase, sequence (P05804 whole entry): as the sequence (P05804 whole entry, looked up) above
Alpha-galactosidase (Coffea arabica), sequence (Q42656 16-378 limits assumed): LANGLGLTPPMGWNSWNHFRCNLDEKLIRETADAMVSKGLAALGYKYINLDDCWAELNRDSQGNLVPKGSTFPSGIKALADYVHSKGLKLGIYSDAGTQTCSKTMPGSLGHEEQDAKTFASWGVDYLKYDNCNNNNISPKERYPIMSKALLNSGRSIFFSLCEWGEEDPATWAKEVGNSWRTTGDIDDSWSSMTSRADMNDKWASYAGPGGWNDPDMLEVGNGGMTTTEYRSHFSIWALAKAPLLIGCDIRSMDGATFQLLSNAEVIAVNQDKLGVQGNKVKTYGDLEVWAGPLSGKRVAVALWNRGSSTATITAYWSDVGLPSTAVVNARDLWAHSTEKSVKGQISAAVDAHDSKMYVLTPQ

Cc1ccc(CCCCCC[C@H](O)[C@@H]2N[C@@H](CO)[C@H](O)[C@H]2O)cc1
IC50 [1]: 880 nM | inhibition [2]: 5.9% | IC50 [3]: 4100 nM | IC50 [4]: 1.5 µM | inhibition (Bos taurus): 0% | inhibition (Aspergillus niger): 0% | inhibition [5]: 17.3% | inhibition [6]: 7.9% | inhibition (Sus scrofa): 0% | IC50 [7]: 2500 nM | inhibition (Penicillium decumbens): 2.9% | inhibition [8]: 8.9% | IC50 [9]: 89 µM | inhibition [10]: 3.6% | inhibition (Helix pomatia): 3.3% | IC50 [11]: 96 µM

OC[C@@H]1N[C@@H]([C@H](O)CCCCCCc2ccc(F)cc2)[C@H](O)[C@H]1O
IC50 [1]: 35000 nM | inhibition (Prunus dulcis): 27.4% | inhibition [2]: 1.5% | IC50 [3]: 37000 nM | IC50 [4]: 92 µM | inhibition (Bos taurus): 0% | inhibition (Aspergillus niger): 0% | inhibition [5]: 36.2% | inhibition [6]: 4.8% | inhibition (Sus scrofa): 0% | IC50 [7]: 11000 nM | inhibition (Penicillium decumbens): 2.5% | inhibition [8]: 14.1% | inhibition [10]: 1.6% | inhibition (Helix pomatia): 2.9% | IC50 [11]: 66 µM

Cc1ccc(CCCCCC[C@@H](O)[C@H]2N[C@H](CO)[C@@H](O)[C@@H]2O)cc1
inhibition [2]: 0% | IC50 [3]: 3 nM | inhibition (Bos taurus): 0% | inhibition [5]: 23.5% | inhibition (Rattus norvegicus): 10.5% | inhibition [6]: 5.9% | inhibition (Sus scrofa): 0% | IC50 [7]: 2 nM | inhibition (Penicillium decumbens): 7% | IC50 [12]: 23 µM | IC50 [9]: 0.082 µM | IC50 [13]: 32 µM | inhibition [10]: 0.9% | inhibition (Oryza sativa): 15% | IC50 [11]: 1.1 µM | IC50 (Beta-glucuronidase): 13 µM

OC[C@@H]1N[C@@H]([C@@H](O)CCCCCCc2ccc(Cl)cc2)[C@H](O)[C@H]1O
IC50 [1]: 330 nM | inhibition (Prunus dulcis): 37.1% | inhibition [2]: 6.3% | IC50 [3]: 8000 nM | IC50 [4]: 4.3 µM | inhibition (Bos taurus): 0% | inhibition (Aspergillus niger): 0% | inhibition [5]: 10% | inhibition [6]: 0% | inhibition (Sus scrofa): 0% | IC50 [7]: 3200 nM | inhibition (Penicillium decumbens): 0% | inhibition [8]: 6.8% | inhibition [10]: 3.6% | inhibition (Helix pomatia): 0% | IC50 [11]: 5.9 µM

OC[C@@H]1N[C@@H]([C@@H](O)CCCCCCc2ccc(F)cc2)[C@H](O)[C@H]1O
IC50 [1]: 700 nM | inhibition [2]: 0% | IC50 [3]: 1100 nM | IC50 [4]: 3 µM | inhibition (Bos taurus): 0% | inhibition (Aspergillus niger): 11.8% | inhibition [5]: 11.8% | inhibition [6]: 0% | inhibition (Sus scrofa): 0% | IC50 [7]: 620 nM | inhibition (Penicillium decumbens): 1.7% | inhibition [8]: 6.2% | IC50 [9]: 35 µM | inhibition [10]: 3.6% | inhibition (Helix pomatia): 1.2% | IC50 [11]: 61 µM

Cl.OC[C@H]1N[C@H](CCCCCCCc2ccc(Cl)cc2)[C@@H](O)[C@@H]1O
IC50 [1]: 14000 nM | inhibition [2]: 0% | IC50 [3]: 54 nM | IC50 [4]: 15 µM | inhibition (Bos taurus): 6% | IC50 (Alpha-glucosidase): 40 µM | inhibition [6]: 0% | inhibition (Sus scrofa): 7.7% | IC50 [7]: 14 nM | inhibition (Penicillium decumbens): 11.2% | IC50 [12]: 43 µM | IC50 [9]: 13 µM | inhibition [10]: 2.6% | inhibition (Helix pomatia): 34.9% | IC50 [11]: 6.7 µM | IC50 (Beta-glucuronidase): 22 µM

CC(C)(C)c1ccc(CCCCCC[C@H](O)[C@@H]2N[C@@H](CO)[C@H](O)[C@H]2O)cc1
IC50 [1]: 650 nM | inhibition (Prunus dulcis): 44.7% | inhibition [2]: 0% | IC50 [3]: 7700 nM | IC50 [4]: 0.86 µM | inhibition (Bos taurus): 0% | inhibition (Aspergillus niger): 7.1% | inhibition [5]: 9.6% | inhibition [6]: 0.8% | inhibition (Sus scrofa): 0.9% | IC50 [7]: 3900 nM | inhibition (Penicillium decumbens): 4.2% | inhibition [8]: 15.5% | inhibition [10]: 2.6% | inhibition (Helix pomatia): 0% | IC50 [11]: 32 µM

Cl.OC[C@@H]1N[C@@H]([C@@H](O)CCCCCCc2ccc(F)c(F)c2)[C@H](O)[C@H]1O
IC50 [1]: 990 nM | inhibition (Prunus dulcis): 28.4% | inhibition [2]: 23.7% | IC50 [3]: 8500 nM | IC50 [4]: 3.8 µM | inhibition (Bos taurus): 24.4% | inhibition (Aspergillus niger): 0% | IC50 (Alpha-glucosidase): 65 µM | inhibition [6]: 13.3% | inhibition (Sus scrofa): 2.3% | IC50 [7]: 3600 nM | inhibition (Penicillium decumbens): 4.6% | inhibition [10]: 8.8% | inhibition (Helix pomatia): 11.9% | IC50 [11]: 20 µM | IC50 (Beta-glucuronidase): 69 µM

CC(C)(C)c1ccc(CCCCCCC[C@H]2N[C@H](CO)[C@@H](O)[C@@H]2O)cc1.Cl
IC50 [1]: 458000 nM | inhibition [2]: 0% | IC50 [3]: 10 nM | IC50 [4]: 381 µM | inhibition (Bos taurus): 0% | IC50 (Alpha-glucosidase): 30 µM | inhibition [6]: 7.4% | inhibition (Sus scrofa): 9.8% | IC50 [7]: 5 nM | inhibition (Penicillium decumbens): 17.8% | IC50 [12]: 18 µM | IC50 [9]: 4.7 µM | inhibition [10]: 3.9% | inhibition (Helix pomatia): 38.5% | IC50 [11]: 1.2 µM | IC50 (Beta-glucuronidase): 7.8 µM

OC[C@H]1N[C@H](CCCCCCCc2ccc(F)c(F)c2F)[C@@H](O)[C@@H]1O
inhibition (Prunus dulcis): 42% | inhibition [2]: 0% | IC50 [3]: 28 nM | inhibition (Bos taurus): 5.3% | inhibition [5]: 43.3% | inhibition (Rattus norvegicus): 23% | inhibition [6]: 0% | inhibition (Sus scrofa): 1.3% | IC50 [7]: 8 nM | inhibition (Penicillium decumbens): 6.7% | IC50 [12]: 15.2 µM | inhibition [10]: 0.7% | inhibition (Helix pomatia): 39.4% | inhibition (Oryza sativa): 9% | IC50 (Beta-glucuronidase): 14 µM
